Assay results: patent publication US10961238B2, “Modulators of hedgehog (Hh) signaling pathway” (E-THERAPEUTICS PLC, priority 2016, dated 2021)

System: C3H10T1/2 cells
Test: C3H assay: differentiation of C3H10T1/2 cells by mSHH, measurement of alkaline phosphatase
Format: cell-based, mouse
Conditions: Mus musculus, C3H 10T1/2; C3H10T1/2 cells stimulated with mSHH for 72 hours; alkaline phosphatase activity; read-out: IC50 Ranges

| Structure (SMILES) | IC50 |
| --- | --- |
| Cc1nn(C)c(C)c1CNC(=O)N1CC(S(=O)(=O)N2CCC(c3c[nH]c4ncccc34)CC2)C1 [Compound 95, 3-[4-(1H-pyrrolo[2,3-b]pyridin-3-yl)piperidin-1-yl]sulfonyl-N-[(1,3,5-trimethylpyrazol-4-yl)methyl]azetidine-1-carboxamide] | 100 to 1000 nM |
| O=C(Nc1cccnc1)N1CC(S(=O)(=O)N2CCC(c3c[nH]c4ncccc34)CC2)C1 [Compound 96, N-pyridin-3-yl-3-[4-(1H-pyrrolo[2,3-b]pyridin-3-yl)piperidin-1-yl]sulfonylaze-tidine-1-carboxamide] | 10 to 100 nM |
| CC(C)NC(=O)N1CC(S(=O)(=O)N2CCC(c3c[nH]c4ncccc34)CC2)C1 [Compound 98, N-propan-2-yl-3-[4-(1H-pyrrolo[2,3-b]pyridin-3-yl)piperidin-1-yl]sulfonylaze-tidine-1-carboxamide] | 100 to 1000 nM |
| O=C(NCc1ccco1)N1CC(S(=O)(=O)N2CCC(c3c[nH]c4ncccc34)CC2)C1 [Compound 99, N-(furan-2-ylmethyl)-3-[4-(1H-pyrrolo[2,3-b]pyridin-3-yl)piperidin-1-yl]sulfonylaze-tidine-1-carboxamide] | 100 to 1000 nM |
| CC(C)(C)OC(=O)N1CC(S(=O)(=O)N2CCC(c3cnc4ccccn34)CC2)C1 [Compound 100, tert-butyl 3-(4-imidazo[1,2-a]pyridin-3-ylpiperidin-1-yl)sulfonylaze-tidine-1-carboxylate] | 100 to 1000 nM |
| CC(C)(C)OC(=O)N1CC(S(=O)(=O)N2CCC(c3cnc4n3CCCC4)CC2)C1 [Compound 101, tert-butyl 3-[4-(5,6,7,8-tetrahydroimidazo [1,2-a]pyridin-3-yl)piperidin-1-yl]sulfonylaze-tidine-1-carboxylate] | 1000 to 10000 nM |
| Cn1cncc1C1CCN(S(=O)(=O)C2CN(C(=O)OC(C)(C)C)C2)CC1 [Compound 102, tert-butyl 3-[4-(3-methylimidazol-4-yl)piperidin-1-yl]sulfonylaze-tidine-1-carboxylate] | 1000 to 10000 nM |
| CCOC(=O)N1CCC(S(=O)(=O)N2CCC(c3ccncc3)CC2)CC1 [Compound 103, ethyl 4-(4-pyridin-4-ylpiperidin-1-yl)sulfonylpiper-idine-1-carboxylate] | 1000 to 10000 nM |
| O=C(NC1CCC1)N1CCC(S(=O)(=O)N2CCC(c3ccncc3)CC2)CC1 [Compound 104, N-cyclobutyl-4-(4-pyridin-4-ylpiperidin-1-yl)sulfonylpiper-idine-1-carboxamide] | 1000 to 10000 nM |
| CC(C)OC(=O)N1CCC(S(=O)(=O)N2CCC(c3ccncc3)CC2)CC1 [Compound 105, propan-2-yl 4-(4-pyridin-4-ylpiperidin-1-yl)sulfonylpiper-idine-1-carboxylate] | 1000 to 10000 nM |
| COC(=O)N1CCC(S(=O)(=O)N2CCC(c3ccncc3)CC2)CC1 [Compound 106, methyl 4-(4-pyridin-4-ylpiperidin-1-yl)sulfonylpiper-idine-1-carboxylate] | 1000 to 10000 nM |
| CC(C)(C)NC(=O)N1CC(S(=O)(=O)N2CCC(c3c[nH]c4ncccc34)CC2)C1 [Compound 108, N-tert-butyl-3-[4-(1H-pyrrolo[2,3-b]pyridin-3-yl)piperidin-1-yl]sulfonylaze-tidine-1-carboxamide] | 10 to 100 nM |
| CC(C)(C)OC(=O)N1CC(S(=O)(=O)N2CCC(c3c[nH]c4ncccc34)CC2)C1 [Compound 110, tert-butyl 3-[4-(1H-pyrrolo[2,3-b]pyridin-3-yl)piperidin-1-yl]sulfonylaze-tidine-1-carboxylate] | 10 to 100 nM |
| CC(C)(C)NC(=O)N1CCC(S(=O)(=O)N2CCC(c3ccncc3)CC2)CC1 [Compound 111, N-tert-butyl-4-(4-pyridin-4-ylpiperidin-1-yl)sulfonylpiper-idine-1-carboxamide] | 100 to 1000 nM |
| O=S(=O)(C1CCN(c2ccccc2)CC1)N1CCC(c2ccncc2)CC1 [Compound 113, 4-[1-[(1-Phenyl-4-piperidyl)sulfonyl]-4-piperidyl]pyridine] | 1000 to 10000 nM |
| O=C(Oc1ccccc1)N1CCC(S(=O)(=O)N2CCC(c3ccncc3)CC2)CC1 [Compound 114, phenyl 4-(4-pyridin-4-ylpiperidin-1-yl)sulfonylpiper-idine-1-carboxylate] | 1000 to 10000 nM |
| CC(C)(C)OC(=O)N1CCC(S(=O)(=O)N2CCC(c3c[nH]c4ncc(C(F)(F)F)cc34)CC2)CC1 [Compound 116] | 100 to 1000 nM |
| Cn1cc(-c2cnc3[nH]cc(C4CCN(S(=O)(=O)C5CCN(C(=O)OC(C)(C)C)CC5)CC4)c3c2)cn1 [Compound 117, tert-butyl 4-[4-[5-(1-methylpyrazol-4-yl)-1H-pyrrolo [2,3-b]pyridin-3-yl]piperidin-1-yl]sulfonylpiper-idine-1-carboxylate] | 1000 to 10000 nM |
| O=S(=O)(C1CN(c2ccccn2)C1)N1CCC(c2c[nH]c3ncccc23)CC1 [Compound 118, 3-[1-[1-(2-Pyridyl)azetidin-3-yl]sulfonyl-4-piperidyl]-1H-pyrrolo[2,3-b]pyridine] | 10 to 100 nM |
| CC(C)N(C)C(=O)N1CC(S(=O)(=O)N2CCC(c3c[nH]c4ncccc34)CC2)C1 [Compound 119, N-methyl-N-propan-2-yl-3-[4-(1H-pyrrolo [2,3-b]pyridin-3-yl)piperidin-1-yl]sulfonylaze-tidine-1-carboxamide] | 10 to 100 nM |
| CC(C)(C)OC(=O)N1CC(S(=O)(=O)N2CCC(c3c[nH]c4ncc(C(F)(F)F)cc34)CC2)C1 [Compound 121, tert-butyl 3-[4-[5-(trifluoromethyl)-1H-pyrrolo[2,3-b]pyridin-3-yl]piperidin-1-yl]sulfonylaze-tidine-1-carboxylate] | 1000 to 10000 nM |
| COc1cnc2[nH]cc(C3CCN(S(=O)(=O)C4CN(C(=O)OC(C)(C)C)C4)CC3)c2c1 [Compound 123, tert-butyl 3-[4-(5-methoxy-1H-pyrrolo[2,3-b]pyridin-3-yl)piperidin-1-yl]sulfonylaze-tidine-1-carboxylate] | 100 to 1000 nM |
| CC(C)(C)OC(=O)N1CC(S(=O)(=O)N2CCC(c3c[nH]c4ccccc34)CC2)C1 [Compound 125, tert-butyl 3-[4-(1H-indol-3-yl)piperidin-1-yl]sulfonylaze-tidine-1-carboxylate] | 10 to 100 nM |
| COC(=O)N1CC(S(=O)(=O)N2CCC(c3coc4cccnc34)CC2)C1 [Compound 126, methyl 3-(4-furo [3,2-b]pyridin-3-ylpiperidin-1-yl)sulfonylaze-tidine-1-carboxylate] | 100 to 1000 nM |
| CC(C)(C)OC(=O)N1CC(S(=O)(=O)N2CCC(C3COc4cccnc43)CC2)C1 (stereo not drawn) [Compound 127, tert-butyl 3-[4-(2,3-dihydrofuro[3,2-b]pyridin-3-yl)piperidin-1-yl]sulfonylaze-tidine-1-carboxylate] | 100 to 1000 nM |
| CC(C)(C)OC(=O)N1CC(S(=O)(=O)N2CCC(c3c[nH]c4nccnc34)CC2)C1 [Compound 128, tert-Butyl 3-[[4-(5H-pyrrolo[2,3-b]pyrazin-7-yl)-1-piperidyl]sulfonyl] azetidine-1-carboxylate] | 10 to 100 nM |
| Cc1ccc(S(=O)(=O)n2cc(C3CCN(S(=O)(=O)C4CN(C(=O)OC(C)(C)C)C4)CC3)c3nccnc32)cc1 [Compound 129, tert-butyl 3-[4-[5-(4-methylphenyl)-sulfonylpyrrolo[2,3-b]pyrazin-7-yl]piperidin-1-yl]sulfonylaze-tidine-1-carboxylate] | 1000 to 10000 nM |
